# Assay results taken from patent US4024224A, “14-Aminodaunomycins, their preparation and use” (priority 1974, dated 1977).
# Where two headings read alike, the source gives them in different places.
# Experiments:
# [1] = system: Moloney Sarcoma Virus (MSV); test: Inhibition of MSV-M foci formation in mouse embryo fibroblasts; format: cell-based; settings: Fibroblast, 120 h, 3 days treatment
# Protocol: (§1) Mouse embryo fibroblasts (MEF) were plated on 35 mm. Falcon plastic dishes and infected 24 hours later with Moloney Sarcoma Virus (MSV) in the presence of DEAE-dextran (25 μg./ml.). The samples were then treated for 3 days with different concentrations of the compounds of the invention. The number of foci of transformed cells was microscopically determined 5 days after the infection. Uninfected MEF were similarly treated and at the end of the experiment, the cells were counted in an haemocytometer. In all the experiments, the cells were incubated in a 5% CO2 incubator at 37° C.
# (§2) For use in these tests the compounds were dissolved in distilled water or in 5% ethyl alcohol in distilled water and then diluted in culture medium.
# The results of these tests are reported in Table I in terms of ID50 values (Inhibiting Dose 50%), calculated on dose-effects lines.
# [2] = Proliferation of uninfected mouse embryo fibroblasts (MEF); format: cell-based; settings: mouse, mouse embryo fibroblasts; calculated on dose-effects lines; uninfected MEF, 3 days treatment; read-out: MEF proliferation ID 50 (Inhibiting Dose 50%)
# Protocol: as §1, §2
# Mouse Embryo Fibroblasts = test: as above; format: cell-based; settings: Mus musculus, Fibroblast, 72 h, uninfected MEF, 3 days treatment, read-out: MEF No. of cells
# Protocol: as §1, §2
# [3] = Antitumor activity and toxicity on ascites Sarcoma 180 in CD 1 mice; format: in vivo; settings: mouse, in vivo, ip, read-out: % Toxic Deaths
# Protocol: (§3) The antitumor activity of the compounds of the invention was tested on ascites Sarcoma 180.
# (§4) Three month old CD 1 mice were used. Sarcoma 180 ascites cells were inoculated intraperitoneally (10^6 cells/mouse). For use in these tests, the compounds were dissolved in distilled water or in 5% ethyl alcohol in distilled water, then diluted with Ringers solution and administered i.p. 1 day after the tumor implant (10 ml./kg. of body weight).
# (§5) The toxicity of the test compounds was evaluated by macroscopic autoptic examination mainly in terms of reduction in spleen size. The comparison of the effectiveness of the test compounds is based on the maximum increase in median survival time, as compared to untreated controls, over the dose range used. The number of Long Term Survivors (LTS) refers to tumor-free mice at the end of the experiment (60 days). Solid Sarcoma 180 was implanted subcutaneously by trocar in the flank of CD 1 mice according to standard methods. The mice were treated i.v. for 5 consecutive days, starting 1 day after the tumor implant. On the 11th day the tumor volume was measured by means of a caliper and evaluated according to the formula (a^2 × b)/2, a and b being the minimum and the maximum diameters respectively.
# ascites Sarcoma 180 = test: as above; format: in vivo; settings: for % LTS: 60 days; for LTS (Long Term Survivors after 60 days): survivors/total; for Toxic Deaths: deaths/total
# Protocol: as §3, §4, §5
# Solid Sarcoma 180 = test: Antitumor activity and toxicity on solid Sarcoma 180 in CD 1 mice; format: in vivo; settings: for Tumor Volume T/C %: 11th day; for Toxic Deaths: deaths/total
# Protocol: as §5
# [4] = 0.2 mg./kg. i.p. 1 day after tumor implant
# [5] = 1 mg./kg. i.p. 1 day after tumor implant
# [6] = 5 mg./kg. i.p. 1 day after tumor implant
# [7] = 12.5 mg./kg. i.p. 1 day after tumor implant
# [8] = 25 mg./kg. i.p. 1 day after tumor implant
# [9] = 50 mg./kg. i.p. 1 day after tumor implant
# [10] = 75 mg./kg. i.p. 1 day after tumor implant
# [11] = 100 mg./kg. i.p. 1 day after tumor implant
# [12] = 200 mg./kg. i.p. 1 day after tumor implant
# [13] = 12.5 mg./kg. i.v. for 5 consecutive days
# [14] = 25 mg./kg. i.v. for 5 consecutive days
# [15] = 50 mg./kg. i.v. for 5 consecutive days
compound,measurement,setting,value
COc1cccc2c1C(=O)c1c(O)c3c(c(O)c1C2=O)C[C@@](O)(C(=O)CN(CCO)CCO)C[C@@H]3O[C@H]1C[C@H](N)[C@H](O)[C@H](C)O1 [14-diethanolaminodaunomycin],IC50,"[1]; calculated on dose-effects lines, read-out: MSV-M foci ID 50 (Inhibiting Dose 50%)",0.052 µg/mL
same,activity at 0.0062 µg/mL,"[1]; dose 0.0062 μg/ml, foci counted 5 days after infection, read-out: MSV-M No. of foci",75%
same,activity at 0.025 µg/mL,"[1]; dose 0.0250 μg/ml, foci counted 5 days after infection, read-out: MSV-M No. of foci",73%
same,activity at 0.1 µg/mL,"[1]; dose 0.1 μg/ml, foci counted 5 days after infection, read-out: MSV-M No. of foci",21%
same,activity at 0.4 µg/mL,"[1]; dose 0.4 μg/ml, foci counted 5 days after infection, read-out: MSV-M No. of foci",0%
same,IC50 at 72 h,[2],0.13 µg/mL
same,activity at 0.0062 µg/mL,Mouse Embryo Fibroblasts; dose 0.0062 μg/ml,100%
same,activity at 0.025 µg/mL,Mouse Embryo Fibroblasts; dose 0.0250 μg/ml,95%
same,activity at 0.1 µg/mL,Mouse Embryo Fibroblasts; dose 0.1 μg/ml,56%
same,activity at 0.4 µg/mL,Mouse Embryo Fibroblasts; dose 0.4 μg/ml,25%
same,mortality,[3]; 0.2 mg./kg. i.p.,0%
same,mortality,[3]; 1 mg./kg. i.p.,0%
same,mortality,[3]; 5 mg./kg. i.p.,0%
same,mortality,[3]; 12.5 mg./kg. i.p.,0%
same,mortality,[3]; 25 mg./kg. i.p.,0%
same,mortality,[3]; 50 mg./kg. i.p.,0%
same,mortality,[3]; 75 mg./kg. i.p.,10%
same,mortality,[3]; 100 mg./kg. i.p.,42%
same,mortality,[3]; 200 mg./kg. i.p.,100%
same,"T/C (median survival time, % over untreated controls)",ascites Sarcoma 180; [4],106%
same,% LTS,ascites Sarcoma 180; [4],0%
same,LTS (Long Term Survivors after 60 days),ascites Sarcoma 180; [4],0/10
same,Toxic Deaths,ascites Sarcoma 180; 0.2 mg./kg. i.p.,0/10
same,"T/C (median survival time, % over untreated controls)",ascites Sarcoma 180; [5],103%
same,% LTS,ascites Sarcoma 180; [5],0%
same,LTS (Long Term Survivors after 60 days),ascites Sarcoma 180; [5],0/10
same,Toxic Deaths,ascites Sarcoma 180; 1 mg./kg. i.p.,0/10
same,"T/C (median survival time, % over untreated controls)",ascites Sarcoma 180; [6],124%
same,% LTS,ascites Sarcoma 180; [6],0%
same,LTS (Long Term Survivors after 60 days),ascites Sarcoma 180; [6],0/10
same,Toxic Deaths,ascites Sarcoma 180; 5 mg./kg. i.p.,0/10
same,"T/C (median survival time, % over untreated controls)",ascites Sarcoma 180; [7],181%
same,% LTS,ascites Sarcoma 180; [7],0%
same,LTS (Long Term Survivors after 60 days),ascites Sarcoma 180; [7],0/10
same,Toxic Deaths,ascites Sarcoma 180; 12.5 mg./kg. i.p.,0/10
same,"T/C (median survival time, % over untreated controls)",ascites Sarcoma 180; [8],187%
same,% LTS,ascites Sarcoma 180; [8],20%
same,LTS (Long Term Survivors after 60 days),ascites Sarcoma 180; [8],4/20
same,Toxic Deaths,ascites Sarcoma 180; 25 mg./kg. i.p.,0/20
same,"T/C (median survival time, % over untreated controls)",ascites Sarcoma 180; [9],175%
same,% LTS,ascites Sarcoma 180; [9],23%
same,LTS (Long Term Survivors after 60 days),ascites Sarcoma 180; [9],4/17
same,Toxic Deaths,ascites Sarcoma 180; 50 mg./kg. i.p.,0/17
same,"T/C (median survival time, % over untreated controls)",ascites Sarcoma 180; [10],170%
same,% LTS,ascites Sarcoma 180; [10],0%
same,LTS (Long Term Survivors after 60 days),ascites Sarcoma 180; [10],0/10
same,Toxic Deaths,ascites Sarcoma 180; 75 mg./kg. i.p.,1/10
same,"T/C (median survival time, % over untreated controls)",ascites Sarcoma 180; [11],83%
same,% LTS,ascites Sarcoma 180; [11],0%
same,LTS (Long Term Survivors after 60 days),ascites Sarcoma 180; [11],0/7
same,Toxic Deaths,ascites Sarcoma 180; 100 mg./kg. i.p.,3/7
same,"T/C (median survival time, % over untreated controls)",ascites Sarcoma 180; [12],25%
same,% LTS,ascites Sarcoma 180; [12],0%
same,LTS (Long Term Survivors after 60 days),ascites Sarcoma 180; [12],0/7
same,Toxic Deaths,ascites Sarcoma 180; 200 mg./kg. i.p.,7/7
same,Tumor Volume T/C %,Solid Sarcoma 180; [13],82%
same,Toxic Deaths,Solid Sarcoma 180; [13],1/5
same,Tumor Volume T/C %,Solid Sarcoma 180; [14],66%
same,Toxic Deaths,Solid Sarcoma 180; [14],1/5
same,Tumor Volume T/C %,Solid Sarcoma 180; [15],44%
same,Toxic Deaths,Solid Sarcoma 180; [15],0/5
same,inhibition of tumor growth on solid Sarcoma 180,Solid Sarcoma 180; at non-toxic doses,"marked inhibition of tumor growth, at non-toxic doses"
